US20230011571A1, “SMALL MOLECULE FURIN INHIBITORS FOR TREATING INFECTIOUS DISEASES” (BP Asset V, Inc., priority 2019, published 2023)

Legend:
Format in all cases: cell-based
[1] = tested on: Chikungunya virus (CHIKV); experiment: microbe, parasite or virus in culture; conditions: Chikungunya virus, Vero, 48 h, read-out: Percent viral inhibition CHKV
dengue virus (DENV) = experiment: microbe, parasite or virus in culture; conditions: Dengue virus, Vero, 120 h, read-out: Percent viral inhibition DENY
Marburg virus (MARV) = experiment: organism not typed; conditions: Vero, 72 h, read-out: Percent viral inhibition MARV

For `CC(=O)CC1CCN(Cc2cc(Oc3cnc(N4CCN(C)CC4)nc3)nc(-c3cc(Cl)cc(Cl)c3)c2)CC1` [Example 155, 1-(1-((2-(3,5-dichlorophenyl)-6-((2-(4-methylpiperazin-1-yl)pyrimidin-5-yl)oxy)pyridin-4-yl)methyl)piperidin-4-yl)propan-2-one], the inhibition at 1 µM [1] was 14.5%, the inhibition at 1 µM (dengue virus (DENV)) was 8.98% and the inhibition at 1 µM (Marburg virus (MARV)) was 42%.

`CN1CCCN(c2ccc(Oc3cc(CN4CCC(CC(=O)O)CC4)cc(-c4cc(Cl)cc(Cl)c4)n3)cn2)CC1` [Example 156, 2-(1-((2-(3,5-dichlorophenyl)-6-((6-(4-methyl-1,4-diazepan-1-yl)pyridin-3-yl)oxy)pyridin-4-yl)methyl)piperidin-4-yl)acetic acid] gave an inhibition at 1 µM [1] of 38.4%, an inhibition at 1 µM (dengue virus (DENV)) of 43.9% and an inhibition at 1 µM (Marburg virus (MARV)) of 13.2%.

`CC(=O)NCC1CCN(Cc2cc(Oc3ccc(N4CCN(C)CC4)nn3)nc(-c3cc(Cl)cc(Cl)c3)c2)CC1` [Example 157, N-((1-((2-(3,5-dichlorophenyl)-6-((6-(4-methylpiperazin-1-yl)pyridazin-3-yl)oxy)pyridin-4-yl)methyl)piperidin-4-yl)methyl)acetamide] showed an inhibition at 1 µM [1] of 25.3%, an inhibition at 1 µM (dengue virus (DENV)) of 53.4% and an inhibition at 1 µM (Marburg virus (MARV)) of 77.5%.

Work on `NC1CCN(c2ncc(Oc3cc(CN4CCC(CC(=O)O)CC4)cc(-c4cc(Cl)cc(Cl)c4)n3)cn2)CC1` [Example 158, 2-(1-((2-((2-(4-aminopiperidin-1-yl)pyrimidin-5-yl)oxy)-6-(3,5-dichlorophenyl)pyridin-4-yl)methyl)piperidin-4-yl)acetic acid] yielded an inhibition at 1 µM [1] of 2.85%, an inhibition at 1 µM (dengue virus (DENV)) of 19.3% and an inhibition at 1 µM (Marburg virus (MARV)) of 18%.

`C[C@H]1CN(c2ncc(Oc3cc(CN4CCC(CC(=O)O)CC4)cc(-c4cc(Cl)cc(Cl)c4)n3)cn2)CCN1` [Example 159, (S)-2-(1-((2-(3,5-dichlorophenyl)-6-((2-(3-methylpiperazin-1-yl)pyrimidin-5-yl)oxy)pyridin-4-yl)methyl)piperidin-4-yl)acetic acid] gave an inhibition at 1 µM [1] of 22.9%, an inhibition at 1 µM (dengue virus (DENV)) of 17.5% and an inhibition at 1 µM (Marburg virus (MARV)) of 49.8%.

`CC1(C)CN(c2ncc(Oc3cc(CN4CCC(CC(=O)O)CC4)cc(-c4cc(Cl)cc(Cl)c4)n3)cn2)CCN1` [Example 160, 2-(1-((2-(3,5-dichlorophenyl)-6-((2-(3,3-dimethylpiperazin-1-yl)pyrimidin-5-yl)oxy)pyridin-4-yl)methyl)piperidin-4-yl)acetic acid] showed an inhibition at 1 µM [1] of 21.7%, an inhibition at 1 µM (dengue virus (DENV)) of 49.5% and an inhibition at 1 µM (Marburg virus (MARV)) of 35.1%.

Work on `O=C(O)CC1CCN(Cc2cc(Oc3cnc(N4CC5CNCC5C4)nc3)nc(-c3cc(Cl)cc(Cl)c3)c2)CC1` (stereo not drawn) [Example 161, 2-(1-((2-(3,5-dichlorophenyl)-6-((2-(hexahydropyrrolo[3,4-c]pyrrol-2(1H)-yl)pyrimidin-5-yl)oxy)pyridin-4-yl)methyl)piperidin-4-yl)acetic acid] yielded an inhibition at 1 µM [1] of 28.5%, an inhibition at 1 µM (dengue virus (DENV)) of 33% and an inhibition at 1 µM (Marburg virus (MARV)) of 44.9%.

`O=C(O)CC1CCN(Cc2cc(Oc3cnc(N4CC5CC(C4)N5)nc3)nc(-c3cc(Cl)cc(Cl)c3)c2)CC1` [Example 162, 2-(1-((2-((2-(3,6-diazabicyclo[3.1.1]heptan-3-yl)pyrimidin-5-yl)oxy)-6-(3,5-dichlorophenyl)pyridin-4-yl)methyl)piperidin-4-yl) acetic acid] showed an inhibition at 1 µM [1] of 30.8%, an inhibition at 1 µM (dengue virus (DENV)) of 41.4% and an inhibition at 1 µM (Marburg virus (MARV)) of 72.8%.

Work on `O=C(O)CC1CCN(Cc2cc(Oc3cnc(N4CC5CCC(C4)N5)nc3)nc(-c3cc(Cl)cc(Cl)c3)c2)CC1` [Example 163, 2-(1-((2-((2-(3,8-diazabicyclo[3.2.1]octan-3-yl)pyrimidin-5-yl)oxy)-6-(3,5-dichlorophenyl)pyridin-4-yl)methyl)piperidin-4-yl)acetic acid] yielded an inhibition at 1 µM [1] of 22%, an inhibition at 1 µM (dengue virus (DENV)) of 32.5% and an inhibition at 1 µM (Marburg virus (MARV)) of 34.4%.

In the case of `O=C(O)CC1CCN(Cc2cc(Oc3cnc(N4CCNC5(CC5)C4)nc3)nc(-c3cc(Cl)cc(Cl)c3)c2)CC1` [Example 164, 2-(1-((2-((2-(4,7-diazaspiro[2.5]octan-7-yl)pyrimidin-5-yl)oxy)-6-(3,5-dichlorophenyl)pyridin-4-yl)methyl)piperidin-4-yl)acetic acid], the inhibition at 1 µM [1] is reported as 34.6%, the inhibition at 1 µM (dengue virus (DENV)) is reported as 45.5% and the inhibition at 1 µM (Marburg virus (MARV)) is reported as 36.1%.

Compound `NC1(CO)CCN(c2ncc(Oc3cc(CN4CCC(CC(=O)O)CC4)cc(-c4cc(Cl)cc(Cl)c4)n3)cn2)CC1` [Example 165, 2-(1-((2-((2-(4-amino-4-(hydroxymethyl)piperidin-1-yl)pyrimidin-5-yl)oxy)-6-(3,5-dichlorophenyl)pyridin-4-yl)methyl)piperidin-4-yl) acetic acid] has an inhibition at 1 µM [1] of 18.6%, an inhibition at 1 µM (dengue virus (DENV)) of 36.9% and an inhibition at 1 µM (Marburg virus (MARV)) of 50.9%.

In the case of `O=C(O)CC1CCN(Cc2cc(Oc3ccc(N4CCCNCC4)nc3)nc(-c3cc(Cl)cc(Cl)c3)c2)CC1` [Example 166, 2-(1-((2-((6-(1,4-diazepan-1-yl)pyridin-3-yl)oxy)-6-(3,5-dichlorophenyl)pyridin-4-yl)methyl)piperidin-4-yl) acetic acid], the inhibition at 1 µM [1] is reported as 35.3%, the inhibition at 1 µM (dengue virus (DENV)) is reported as 21.3% and the inhibition at 1 µM (Marburg virus (MARV)) is reported as 45%.

`CC(=O)NCC1CCN(Cc2cc(Oc3cnc(N4CCN(CCS(C)(=O)=O)CC4)nc3)cc(-c3cc(Cl)cc(Cl)c3)c2)CC1` [Example 167, N-((1-((3′,5′-dichloro-5-((2-(4-(2-(methylsulfonyl)ethyl)piperazin-1-yl)pyrimidin-5-yl)oxy)-[1,1′-biphenyl]-3-yl)methyl)piperidin-4-yl)methyl)acetamide] gave an inhibition at 1 µM [1] of 0%, an inhibition at 1 µM (dengue virus (DENV)) of 41.3% and an inhibition at 1 µM (Marburg virus (MARV)) of 0%.

For `CC(=O)NCC1CCN(Cc2cc(Oc3cnc(N4CCN(CCC(=O)O)CC4)nc3)cc(-c3cc(Cl)cc(Cl)c3)c2)CC1` [Example 168], the inhibition at 1 µM [1] was 29.6%, the inhibition at 1 µM (dengue virus (DENV)) was 38.9% and the inhibition at 1 µM (Marburg virus (MARV)) was 60.3%.

Compound `CC(=O)NCC1CCN(Cc2cc(Oc3ccc(N4CCN(CCC(=O)O)CC4)nn3)nc(-c3cc(Cl)cc(Cl)c3)c2)CC1` [Example 169, 3-(4-(6-((4-((4-(acetamidomethyl)piperidin-1-yl)methyl)-6-(3,5-dichlorophenyl)pyridin-2-yl)oxy)pyridazin-3-yl)piperazin-1-yl)propanoic acid] has an inhibition at 1 µM [1] of 0%, an inhibition at 1 µM (dengue virus (DENV)) of 0% and an inhibition at 1 µM (Marburg virus (MARV)) of 16.4%.

With `CC(=O)NCC1CCN(Cc2cc(Oc3cnc(N4CCN(CCC(N)=O)CC4)nc3)cc(-c3cc(Cl)cc(Cl)c3)c2)CC1` [Example 170, 3-(4-(5-((5-((4-(acetamidomethyl)piperidin-1-yl)methyl)-3′,5′-dichloro-[1,1′-biphenyl]-3-yl)oxy)pyrimidin-2-yl)piperazin-1-yl)propanamide] the inhibition at 1 µM [1] was 7.29%, the inhibition at 1 µM (dengue virus (DENV)) was 57.6% and the inhibition at 1 µM (Marburg virus (MARV)) was 10.3%.

In the case of `CNC(=O)NCC1CCN(Cc2cc(Oc3cnc(N4CCN(CCCO)CC4)nc3)nc(-c3cc(Cl)cc(Cl)c3)c2)CC1` [Example 171, 1-((1-((2-(3,5-dichlorophenyl)-6-((2-(4-(3-hydroxypropyl)piperazin-1-yl)pyrimidin-5-yl)oxy)pyridin-4-yl)methyl)piperidin-4-yl)methyl)-3-methylurea], the inhibition at 1 µM [1] is reported as 0%, the inhibition at 1 µM (dengue virus (DENV)) is reported as 41.7% and the inhibition at 1 µM (Marburg virus (MARV)) is reported as 0%.

`O=C(O)CC1CCN(Cc2cc(Oc3cnc(N4CCN(CC(O)CO)CC4)nc3)nc(-c3cc(Cl)cc(Cl)c3)c2)CC1` (stereo not drawn) [Example 177, 2-(1-((2-(3,5-dichlorophenyl)-6-((2-(4-(2,3-dihydroxypropyl)piperazin-1-yl)pyrimidin-5-yl)oxy)pyridin-4-yl)methyl)piperidin-4-yl)acetic acid] was tested, and the inhibition at 1 µM [1] was 14.3%, the inhibition at 1 µM (dengue virus (DENV)) was 24% and the inhibition at 1 µM (Marburg virus (MARV)) was 37%.

Compound `CC(=O)NCC1CCN(Cc2cc(Oc3ccc(N4CC[N+](C)([O-])CC4)nc3)nc(-c3cc(Cl)cc(Cl)c3)c2)CC1` [Example 178, 4-(5-((4-((4-(acetamidomethyl)piperidin-1-yl)methyl)-6-(3,5-dichlorophenyl)pyridin-2-yl)oxy)pyridin-2-yl)-1-methylpiperazinel-oxide] has an inhibition at 1 µM [1] of 30.4%, an inhibition at 1 µM (dengue virus (DENV)) of 71.1% and an inhibition at 1 µM (Marburg virus (MARV)) of 57.7%.

Work on `CC(=O)NCC1CCN(Cc2cc(Oc3ccc(N4CC[N+](CCO)(CCO)CC4)nc3)nc(-c3cc(Cl)cc(Cl)c3)c2)CC1` [Example 179, 4-(5-((4-((4-(acetamidomethyl)piperidin-1-yl)methyl)-6-(3,5-dichlorophenyl)pyridin-2-yl)oxy)pyridin-2-yl)-1,1-bis(2-hydroxyethyl) piperazin-1-ium] yielded an inhibition at 1 µM [1] of 5.87%, an inhibition at 1 µM (dengue virus (DENV)) of 42.1% and an inhibition at 1 µM (Marburg virus (MARV)) of 27.4%.

`CC(=O)NCC1CCN(Cc2cc(Oc3ccc(N4CCN(CCO)CC4)nc3)nc(-c3cc(Cl)cc(Cl)c3)c2)CC1` [Example 180, N-((1-((2-(3,5-dichlorophenyl)-6-((6-(4-(2-hydroxyethyl)piperazin-1-yl)pyridin-3-yl)oxy)pyridin-4-yl)methyl)piperidin-4-yl)methyl)acetamide] gave an inhibition at 1 µM [1] of 0%, an inhibition at 1 µM (dengue virus (DENV)) of 10.4% and an inhibition at 1 µM (Marburg virus (MARV)) of 25.4%.

For `CC(=O)NCC1CCN(Cc2cc(Oc3ccc(N4CC[N+](C)(C)CC4)nc3)nc(-c3cc(Cl)cc(Cl)c3)c2)CC1` [Example 181, 4-(5-((4-((4-(acetamidomethyl)piperidin-1-yl)methyl)-6-(3,5-dichlorophenyl)pyridin-2-yl)oxy)pyridin-2-yl)-1,1-dimethylpiperazin-1-ium], the inhibition at 1 µM [1] was 11.7%, the inhibition at 1 µM (dengue virus (DENV)) was 49.1% and the inhibition at 1 µM (Marburg virus (MARV)) was 12.5%.

For `CC(=O)NCC1CCN(Cc2cc(Oc3ccc(N4C[C@@H]5C[C@H]4CN5CCS(C)(=O)=O)nc3)nc(-c3cc(Cl)cc(Cl)c3)c2)CC1` [Example 183, N-((1-((2-(3,5-dichlorophenyl)-6-((6-((1S,4S)-5-(2-(methylsulfonyl)ethyl)-2,5-diazabicyclo[2.2.1]heptan-2-yl)pyridin-3-yl)oxy)pyridin-4-yl)methyl)piperidin-4-yl)methyl)acetamide], the inhibition at 1 µM [1] was 16.4%, the inhibition at 1 µM (dengue virus (DENV)) was 21% and the inhibition at 1 µM (Marburg virus (MARV)) was 74.8%.
